Assay results reported in US20230125667A1, “NOVEL TDZD ANALOGS AS AGENTS THAT DELAY, PREVENT, OR REVERSE AGE-ASSOCIATED DISEASES AND AS ANTI-CANCER AND ANTILEUKEMIC AGENTS” (United States Government as represented by the Department …, priority 2020, published 2023).
Like-named read-outs stand apart in the source and are kept apart here.

Experiments:
SNB-19 = experiment: NCI-60 growth inhibition: SNB-19 (CNS Cancer); assay type: cell-based, human; conditions: Homo sapiens
SK-MEL-28 = experiment: NCI-60 growth inhibition: SK-MEL-28 (Melanoma); assay type: cell-based, human; conditions: Homo sapiens
HT29 = experiment: NCI-60 growth inhibition: HT29 (Colon Cancer); assay type: cell-based, human; conditions: Homo sapiens, HT-29
CAKI-1 = experiment: NCI-60 growth inhibition: CAKI-1 (Renal Cancer); assay type: cell-based, human; conditions: Homo sapiens
BT-549 = experiment: NCI-60 growth inhibition: BT-549 (Breast Cancer); assay type: cell-based, human; conditions: Homo sapiens
IGROV1 = experiment: NCI-60 growth inhibition: IGROV1 (Ovarian Cancer); assay type: cell-based, human; conditions: Homo sapiens, IGROV-1
SN12C = experiment: NCI-60 growth inhibition: SN12C (Renal Cancer); assay type: cell-based, human; conditions: Homo sapiens
MDA-MB-231/ATCC = experiment: NCI-60 growth inhibition: MDA-MB-231/ATCC (Breast Cancer); assay type: cell-based, human; conditions: Homo sapiens
OVCAR-5 = experiment: NCI-60 growth inhibition: OVCAR-5 (Ovarian Cancer); assay type: cell-based, human; conditions: Homo sapiens
RXF 393 = experiment: NCI-60 growth inhibition: RXF 393 (Renal Cancer); assay type: cell-based, human; conditions: Homo sapiens
UACC-62 = experiment: NCI-60 growth inhibition: UACC-62 (Melanoma); assay type: cell-based, human; conditions: Homo sapiens
M14 = experiment: NCI-60 growth inhibition: M14 (Melanoma); assay type: cell-based, human; conditions: Homo sapiens
NCI-H23 = experiment: NCI-60 growth inhibition: NCI-H23 (Non-Small-Cell Lung Cancer); assay type: cell-based, human; conditions: Homo sapiens
HCT-116 = experiment: NCI-60 growth inhibition: HCT-116 (Colon Cancer); conditions: Homo sapiens, HCT-116
MDA-MB-435 = experiment: NCI-60 growth inhibition: MDA-MB-435 (Melanoma); assay type: cell-based, human; conditions: Homo sapiens
UACC-257 = experiment: NCI-60 growth inhibition: UACC-257 (Melanoma); assay type: cell-based, human; conditions: Homo sapiens
HCT-15 = experiment: NCI-60 growth inhibition: HCT-15 (Colon Cancer); assay type: cell-based, human; conditions: Homo sapiens
PC-3 = experiment: NCI-60 growth inhibition: PC-3 (Prostate Cancer); assay type: cell-based, human; conditions: Homo sapiens
HOP-92 = experiment: NCI-60 growth inhibition: HOP-92 (Non-Small-Cell Lung Cancer); assay type: cell-based, human; conditions: Homo sapiens
MDA-MB-468 = experiment: NCI-60 growth inhibition: MDA-MB-468 (Breast Cancer); assay type: cell-based, human; conditions: Homo sapiens; MDA-MB-468 (Breast Cancer); read-out: GI50
UO-31 = experiment: NCI-60 growth inhibition: UO-31 (Renal Cancer); assay type: cell-based, human; conditions: Homo sapiens
CCRF-CEM = experiment: NCI-60 growth inhibition: CCRF-CEM (Leukemia); assay type: cell-based, human; conditions: Homo sapiens
SW-620 = experiment: NCI-60 growth inhibition: SW-620 (Colon Cancer); assay type: cell-based, human; conditions: Homo sapiens
OVCAR-3 = experiment: NCI-60 growth inhibition: OVCAR-3 (Ovarian Cancer); assay type: cell-based, human; conditions: Homo sapiens
SK-MEL-2 = experiment: NCI-60 growth inhibition: SK-MEL-2 (Melanoma); assay type: cell-based, human; conditions: Homo sapiens
SF-539 = experiment: NCI-60 growth inhibition: SF-539 (CNS Cancer); assay type: cell-based, human; conditions: Homo sapiens
786-0 = experiment: NCI-60 growth inhibition: 786-0 (Renal Cancer); assay type: cell-based, human; conditions: Homo sapiens
[1] = test system: MV4-11 cell line (myelomonocytic leukemia); conditions: MV4-11 cells, 24 h
COLO 205 = experiment: NCI-60 growth inhibition: COLO 205 (Colon Cancer); assay type: cell-based, human; conditions: Homo sapiens
DU-145 = experiment: NCI-60 growth inhibition: DU-145 (Prostate Cancer); assay type: cell-based, human; conditions: Homo sapiens
SF-268 = experiment: NCI-60 growth inhibition: SF-268 (CNS Cancer); assay type: cell-based, human; conditions: Homo sapiens
MCF7 = experiment: NCI-60 growth inhibition: MCF7 (Breast Cancer); assay type: cell-based, human; conditions: Homo sapiens
RPMI-8226 = experiment: NCI-60 growth inhibition: RPMI-8226 (Leukemia); assay type: cell-based, human; conditions: Homo sapiens
TK-10 = experiment: NCI-60 growth inhibition: TK-10 (Renal Cancer); assay type: cell-based, human; conditions: Homo sapiens
OVCAR-8 = experiment: NCI-60 growth inhibition: OVCAR-8 (Ovarian Cancer); assay type: cell-based, human; conditions: Homo sapiens
MOLT-4 = experiment: NCI-60 growth inhibition: MOLT-4 (Leukemia); assay type: cell-based, human; conditions: Homo sapiens
NCI-H522 = experiment: NCI-60 growth inhibition: NCI-H522 (Non-Small-Cell Lung Cancer); conditions: Homo sapiens, NCI-H522
LOX IMVI = experiment: NCI-60 growth inhibition: LOX IMVI (Melanoma); assay type: cell-based, human; conditions: Homo sapiens
K-562 = experiment: NCI-60 growth inhibition: K-562 (Leukemia); assay type: cell-based, human; conditions: Homo sapiens, K562
T-47D = experiment: NCI-60 growth inhibition: T-47D (Breast Cancer); assay type: cell-based, human; conditions: Homo sapiens, T47D
U251 = experiment: NCI-60 growth inhibition: U251 (CNS Cancer); assay type: cell-based, human; conditions: Homo sapiens, U-251
HS 578T = experiment: NCI-60 growth inhibition: HS 578T (Breast Cancer); assay type: cell-based, human; conditions: Homo sapiens
EKVX = experiment: NCI-60 growth inhibition: EKVX (Non-Small-Cell Lung Cancer); assay type: cell-based, human; conditions: Homo sapiens
NCI-H460 = experiment: NCI-60 growth inhibition: NCI-H460 (Non-Small-Cell Lung Cancer); assay type: cell-based, human; conditions: Homo sapiens
ACHN = experiment: NCI-60 growth inhibition: ACHN (Renal Cancer); assay type: cell-based, human; conditions: Homo sapiens
MALME-3M = experiment: NCI-60 growth inhibition: MALME-3M (Melanoma); assay type: cell-based, human; conditions: Homo sapiens
OVCAR-4 = experiment: NCI-60 growth inhibition: OVCAR-4 (Ovarian Cancer); assay type: cell-based, human; conditions: Homo sapiens
A498 = experiment: NCI-60 growth inhibition: A498 (Renal Cancer); assay type: cell-based, human; conditions: Homo sapiens
SK-MEL-5 = experiment: NCI-60 growth inhibition: SK-MEL-5 (Melanoma); assay type: cell-based, human; conditions: Homo sapiens
[2] = Ibuprofen-TDZD analogs (Table 3)

C=C1C(=O)O[C@H]2[C@H]1CC/C(COC(=O)NCc1ccc(Cn3c(=O)sn(CCI)c3=O)cc1)=C\CC[C@@]1(C)O[C@@H]21 [BSK-187]
GI50 (SNB-19): 6880 nM | GI50 (SK-MEL-28): 2060 nM | GI50 (HT29): 2100 nM | GI50 (CAKI-1): 3790 nM | GI50 (BT-549): 2400 nM | GI50 (IGROV1): 2080 nM | GI50 (SN12C): 2160 nM | GI50 (MDA-MB-231/ATCC): 1770 nM | GI50 (OVCAR-5): 3280 nM | GI50 (RXF 393): 1610 nM | GI50 (UACC-62): 1980 nM | GI50 (M14): 1820 nM | GI50 (NCI-H23): 3460 nM | GI50 (HCT-116): 1760 nM | GI50 (MDA-MB-435): 2450 nM | GI50 (UACC-257): 2240 nM | GI50 (HCT-15): 1910 nM | GI50 (PC-3): 1750 nM | GI50 (HOP-92): 1380 nM | GI50 (MDA-MB-468): 1250 nM | GI50 (UO-31): 1650 nM | GI50 (CCRF-CEM): 500 nM | GI50 (SW-620): 1660 nM | GI50 (OVCAR-3): 1640 nM | GI50 (SK-MEL-2): 11700 nM | GI50 (SF-539): 1720 nM | GI50 (786-0): 1820 nM | LD50, 7AAD (μM) 24 h ([1]; MMB-TDZD analogs (Table 2)): 2.37 µM | LD50, Alamar blue (μM) 24 h ([1]; MMB-TDZD analogs (Table 2)): 1.0 µM | LD50, YOPRO (μM) 24 h ([1]; MMB-TDZD analogs (Table 2)): 1.21 µM | GI50 (COLO 205): 1860 nM | GI50 (DU-145): 1820 nM | GI50 (SF-268): 2410 nM | GI50 (MCF7): 1710 nM | GI50 (RPMI-8226): 1980 nM | GI50 (TK-10): 1910 nM | GI50 (OVCAR-8): 4550 nM | GI50 (MOLT-4): 1350 nM | GI50 (NCI-H522): 1720 nM | GI50 (LOX IMVI): 1690 nM | GI50 (K-562): 650 nM | GI50 (T-47D): 1320 nM | GI50 (U251): 4670 nM | GI50 (HS 578T): 7290 nM | GI50 (EKVX): 2110 nM | GI50 (NCI-H460): 6420 nM | GI50 (ACHN): 1890 nM | GI50 (MALME-3M): 1680 nM | GI50 (OVCAR-4): 2020 nM | GI50 (A498): 4440 nM | GI50 (SK-MEL-5): 5370 nM

CCCCCn1sc(=O)n(Cc2ccc(CNC(=O)C(C)c3ccc(CC(C)C)cc3)cc2)c1=O (stereo not drawn) [BSK-235]
LD50, 7AAD (μM) 24 h [1, 2]: 2.54 µM | LD50, Alamar blue (μM) 24 h [1, 2]: 3.50 µM | LD50, YOPRO (μM) 24 h [1, 2]: 3.2 µM

CC(C)Cc1ccc(C(C)C(=O)NCc2ccc(Cn3c(=O)sn(CCCCl)c3=O)cc2)cc1 (stereo not drawn) [BSK-236]
LD50, 7AAD (μM) 24 h [1, 2]: 1.75 µM | LD50, Alamar blue (μM) 24 h [1, 2]: 2.50 µM | LD50, YOPRO (μM) 24 h [1, 2]: 1.77 µM

CCCCn1sc(=O)n(Cc2ccc(CNC(=O)C(C)c3ccc(CC(C)C)cc3)cc2)c1=O (stereo not drawn) [BSK-238]
LD50, 7AAD (μM) 24 h [1, 2]: 11.2 µM | LD50, Alamar blue (μM) 24 h [1, 2]: 10.00 µM | LD50, YOPRO (μM) 24 h [1, 2]: 10.9 µM

CC(C)Cc1ccc(C(C)C(=O)NCc2ccc(Cn3c(=O)sn(-c4ccccc4)c3=O)cc2)cc1 (stereo not drawn) [BSK-239]
LD50, 7AAD (μM) 24 h [1, 2]: 4.91 µM | LD50, Alamar blue (μM) 24 h [1, 2]: 4.70 µM | LD50, YOPRO (μM) 24 h [1, 2]: 4.24 µM

CC(C)Cc1ccc(C(C)C(=O)NCc2ccc(Cn3c(=O)sn(CCCI)c3=O)cc2)cc1 (stereo not drawn) [BSK-260]
LD50, 7AAD (μM) 24 h [1, 2]: 1.42 µM | LD50, Alamar blue (μM) 24 h [1, 2]: 1.49 µM | LD50, YOPRO (μM) 24 h [1, 2]: 1.48 µM
